Assay results as given in ChEMBL document CHEMBL3351234, “Discovery of novel 2,4-diarylaminopyrimidine analogues (DAAPalogues) showing potent inhibitory activities against both wild-type and mutant ALK kinases” (J Med Chem, 2015).
Values after ≈ are worked out from the molar mass of the structure shown.

Tests used:
in vivo [1] = settings: rat, plasma, po, 2.5 mg/kg
in vivo [2] = settings: rat, po, 2.5 mg/kg
physchem [3] = settings: aqueous
physchem [4] = settings: aqueous; remark: listed apart in the source

CC(C)S(=O)(=O)c1ccccc1Nc1nc(Nc2cccc(NC(=O)CN)c2)ncc1Cl
AUC(0-inf) (in vivo [1]): 454 ng·h/mL
half-life (in vivo [2]): 30 min
solubility (physchem [3]): < 100 µg/mL
solubility (physchem [4]): 4000 µg/mL (≈ 8.42 mM)
